Reference: the NIST ThermoML archive (doi:10.1021/je030223f)
“And” between values parts separate entries of the source, which are not always exact repeats. Identical values can stand only once. Numbers after ± are expanded uncertainties.

Conditions: Liquid, Calculated from knudsen effusion weight loss

[Br-].[Br-].[Br-].[Tm+3] [thulium tribromide]
Conditions	vapor or sublimation pressure
921 K	0.0001148 ± 6.8e-06 kPa
924 K	0.0001259 ± 7.1e-06 kPa
927 K	0.0001349 ± 1.3e-05 kPa
931 K	0.0002042 ± 1.2e-05 kPa
937 K	0.0002042 ± 1.8e-05 kPa
938 K	0.0002188 ± 1.2e-05 kPa and 0.0002754 ± 1.4e-05 kPa
942 K	0.0002291 ± 1.5e-05 kPa
947 K	0.000309 ± 2.3e-05 kPa and 0.0004074 ± 2.9e-05 kPa
949 K	0.0003467 ± 2.6e-05 kPa
952 K	0.0004074 ± 2.2e-05 kPa
953 K	0.0003631 ± 2.5e-05 kPa
956 K	0.0004571 ± 5e-05 kPa
958 K	0.0005888 ± 3e-05 kPa
961 K	0.0005012 ± 2.8e-05 kPa
964 K	0.0006607 ± 5.4e-05 kPa
965 K	0.0006607 ± 5.3e-05 kPa
967 K	0.0007762 ± 3.9e-05 kPa
968 K	0.000631 ± 3.2e-05 kPa
971 K	0.0007244 ± 6.8e-05 kPa
974 K	0.0009772 ± 6.4e-05 kPa
976 K	0.000912 ± 5.4e-05 kPa
978 K	0.001096 ± 0.00011 kPa
980 K	0.0009772 ± 6.6e-05 kPa
984 K	0.001318 ± 0.00015 kPa
987 K	0.001288 ± 0.00014 kPa
988 K	0.001514 ± 0.00017 kPa and 0.001349 ± 0.00015 kPa
990 K	0.001445 ± 0.00016 kPa
995 K	0.001622 ± 0.00021 kPa
999 K	0.002399 ± 0.00031 kPa
1000 K	0.001995 ± 0.00024 kPa
1001 K	0.002239 ± 0.0003 kPa
1004 K	0.00257 ± 0.00032 kPa and 0.002291 ± 0.00028 kPa
1006 K	0.002692 ± 0.00033 kPa
1007 K	0.002455 ± 0.00036 kPa
1009 K	0.003236 ± 0.00042 kPa and 0.002951 ± 0.00038 kPa
1013 K	0.003236 ± 0.00041 kPa and 0.004074 ± 0.00054 kPa
1015 K	0.003467 ± 0.00044 kPa and 0.003162 ± 0.0004 kPa
1019 K	0.003548 ± 0.00048 kPa
1020 K	0.004571 ± 0.00084 kPa and 0.004677 ± 0.00085 kPa
1022 K	0.00537 ± 0.00073 kPa
1024 K	0.004365 ± 0.00064 kPa
1025 K	0.004677 ± 0.00066 kPa
1026 K	0.004786 ± 0.00064 kPa
1027 K	0.004571 ± 0.00074 kPa
1028 K	0.005623 ± 0.00083 kPa
1030 K	0.005623 ± 0.00077 kPa
1033 K	0.005495 ± 0.00077 kPa
1035 K	0.006607 ± 0.00093 kPa
1037 K	0.005754 ± 0.00084 kPa
1038 K	0.007762 ± 0.0013 kPa
1039 K	0.006918 ± 0.001 kPa
1042 K	0.006607 ± 0.00097 kPa
1043 K	0.008511 ± 0.0014 kPa
1046 K	0.00955 ± 0.0016 kPa
1048 K	0.01288 ± 0.0021 kPa
1050 K	0.00955 ± 0.0014 kPa
1056 K	0.01349 ± 0.0022 kPa
1061 K	0.01445 ± 0.0023 kPa
1063 K	0.01318 ± 0.0024 kPa
1066 K	0.01995 ± 0.0034 kPa
1070 K	0.01995 ± 0.0034 kPa
1073 K	0.02754 ± 0.0048 kPa
1076 K	0.02512 ± 0.0043 kPa
1080 K	0.0263 ± 0.0046 kPa
1088 K	0.03388 ± 0.0091 kPa
1089 K	0.04074 ± 0.0074 kPa
1092 K	0.03467 ± 0.0061 kPa
1096 K	0.04266 ± 0.0078 kPa
1103 K	0.04677 ± 0.0088 kPa
1105 K	0.06457 ± 0.013 kPa
1107 K	0.06166 ± 0.012 kPa
1116 K	0.06761 ± 0.014 kPa
1118 K	0.07943 ± 0.016 kPa
1123 K	0.09772 ± 0.02 kPa
1127 K	0.1047 ± 0.021 kPa and 0.09333 ± 0.019 kPa
1135 K	0.1288 ± 0.027 kPa
1136 K	0.1349 ± 0.029 kPa
1143 K	0.166 ± 0.035 kPa
1155 K	0.2138 ± 0.046 kPa

[I][Tm]([I])[I] [thulium triiodide]
Conditions	vapor or sublimation pressure
887 K	0.0001318 ± 5.5e-05 kPa
888 K	7.763e-05 ± 5.4e-05 kPa
897 K	0.0001585 ± 2.2e-05 kPa
899 K	0.0001175 ± 1.3e-05 kPa
902 K	0.0002089 ± 2.2e-05 kPa
905 K	0.0002344 ± 1.3e-05 kPa and 0.0001698 ± 8.5e-06 kPa
906 K	0.0002291 ± 1.7e-05 kPa and 0.0001585 ± 1.5e-05 kPa
907 K	0.0002089 ± 2.6e-05 kPa
909 K	0.0001585 ± 2.1e-05 kPa
911 K	0.0002884 ± 5.6e-05 kPa
912 K	0.0003162 ± 1.7e-05 kPa and 0.0002089 ± 1.7e-05 kPa
914 K	0.000309 ± 1.7e-05 kPa and 0.0002344 ± 1.4e-05 kPa
916 K	0.0002884 ± 2.9e-05 kPa and 0.0002089 ± 3e-05 kPa
920 K	0.0004467 ± 3.2e-05 kPa and 0.0004571 ± 3.3e-05 kPa
921 K	0.0003715 ± 6.8e-05 kPa
922 K	0.0003162 ± 2.3e-05 kPa
923 K	0.0003388 ± 3.8e-05 kPa
925 K	0.0004169 ± 3.8e-05 kPa and 0.0002884 ± 3.8e-05 kPa
928 K	0.0005012 ± 4.9e-05 kPa
930 K	0.000631 ± 3.5e-05 kPa and 0.0006607 ± 3.5e-05 kPa
931 K	0.0004169 ± 5.1e-05 kPa
932 K	0.000537 ± 3e-05 kPa and 0.0004677 ± 2.7e-05 kPa
933 K	0.000389 ± 4.9e-05 kPa
936 K	0.0006607 ± 9.5e-05 kPa
938 K	0.0008318 ± 4.9e-05 kPa and 0.0005495 ± 2.8e-05 kPa
939 K	0.0007079 ± 0.00016 kPa and 0.000912 ± 0.00016 kPa
940 K	0.0005248 ± 3.5e-05 kPa
941 K	0.0006607 ± 0.00014 kPa
946 K	0.000955 ± 0.0002 kPa and 0.001122 ± 0.00038 kPa
947 K	0.0007586 ± 0.0001 kPa
948 K	0.001148 ± 0.00012 kPa and 0.000955 ± 5.1e-05 kPa
949 K	0.0007244 ± 4.8e-05 kPa
951 K	0.0009772 ± 0.00012 kPa
953 K	0.001148 ± 0.0002 kPa
954 K	0.001479 ± 0.00018 kPa
955 K	0.001318 ± 0.00015 kPa and 0.001047 ± 0.00012 kPa
956 K	0.001585 ± 0.00021 kPa and 0.0009333 ± 0.00017 kPa
959 K	0.00182 ± 0.00021 kPa
960 K	0.001288 ± 0.00023 kPa
961 K	0.001445 ± 0.00022 kPa and 0.001905 ± 0.00025 kPa
963 K	0.001738 ± 0.0002 kPa and 0.001349 ± 0.00016 kPa
964 K	0.00123 ± 0.00021 kPa
966 K	0.002089 ± 0.00045 kPa and 0.002291 ± 0.00047 kPa and 0.001585 ± 0.00042 kPa
968 K	0.002754 ± 0.00034 kPa
969 K	0.001862 ± 0.00024 kPa
970 K	0.002512 ± 0.00039 kPa
971 K	0.002344 ± 0.00028 kPa and 0.001585 ± 0.00019 kPa
973 K	0.00257 ± 0.00031 kPa and 0.001862 ± 0.00022 kPa
975 K	0.002512 ± 0.00042 kPa
976 K	0.003631 ± 0.00052 kPa and 0.002951 ± 0.00046 kPa and 0.002138 ± 0.00042 kPa
978 K	0.003388 ± 0.00045 kPa
980 K	0.00309 ± 0.00043 kPa and 0.002042 ± 0.00035 kPa
981 K	0.002818 ± 0.00059 kPa and 0.002399 ± 0.00058 kPa
983 K	0.004365 ± 0.00058 kPa
984 K	0.002754 ± 0.00038 kPa
987 K	0.004571 ± 0.00071 kPa
988 K	0.00389 ± 0.001 kPa
989 K	0.002818 ± 0.00074 kPa and 0.00309 ± 0.00074 kPa
991 K	0.005495 ± 0.00077 kPa and 0.005012 ± 0.0007 kPa
993 K	0.003548 ± 0.00054 kPa
999 K	0.007079 ± 0.001 kPa and 0.00631 ± 0.0009 kPa
1002 K	0.004898 ± 0.00075 kPa
1006 K	0.009333 ± 0.0016 kPa
1008 K	0.00871 ± 0.0013 kPa
1014 K	0.01122 ± 0.0017 kPa
1017 K	0.01148 ± 0.0018 kPa
1024 K	0.01514 ± 0.0025 kPa
1025 K	0.01445 ± 0.0024 kPa
1032 K	0.01995 ± 0.0034 kPa
1034 K	0.0195 ± 0.0032 kPa
1043 K	0.02818 ± 0.005 kPa and 0.0257 ± 0.0045 kPa
1051 K	0.03715 ± 0.0067 kPa and 0.03311 ± 0.0059 kPa
